Results on four compounds are retold here after patent US4983614A, “Benzhydryloxyethylpiperidine derivatives, process for their preparation and pharmaceutical compositions, in which they are present” (priority 1986, dated 1991).

Counter-ions that a name gives are not always drawn. Like-named read-outs stand apart in the source and are kept apart here.

A short description of series [1]: Determination of the 50% lethal dose (LD50) in mice. Particulars: mouse, in vivo. The protocol: A. Determination of the 50% lethal dose (LD50) in mice
The derivatives studied were administered intraperitoneally and orally to groups made up of five male mice and five female mice, at a rate of 0.1 ml per ten grams of body weight.

In series [2] the test system is pain syndrome caused by phenylbenzoquinone (PBQ). Briefly: Peripheral analgesic activity (phenylbenzoquinone-induced abdominal twisting). The note with it: Mus musculus, ip. In kind it is in vivo. The protocol: F--Peripheral analgesic activity
A peritoneal pain is caused in mice by the intraperitoneal injection of phenylbenzoquinone (PBQ). The test assesses the decrease in the pain syndrome, characterized by an abdominal twisting movement, which is caused by injecting the test product thirty minutes before the administration of PBQ.
The 50% effective dose is calculated from the percentage decrease in the pain syndrome relative to the control animals.

Series [3] deals with contractions induced by histamine hydrochloride in isolated guinea-pig ileum. Briefly: Study on an isolated organ (guinea-pig ileum), antagonism of histamine contractions. The note with it: 35° C., Tyrode's solution. As to the method:
I--Study on an isolated organ (guinea-pig ileum)
This test assesses antagonism towards the contractions induced by histamine hydrochloride in isolated guinea-pig ileum kept at 35° C. in Tyrode's solution.

Series [4] deals with histamine-induced bronchospasm. Briefly: Bronchospasm by inhalation of a histamine solution. The class given is in vivo. The note with it: Cavia porcellus, guinea-pig. The protocol: J--Bronchospasm by inhalation of a histamine solution
Guinea-pigs are placed in a closed chamber into which histamine is introduced as an aerosol, and only those which show very distinct signs of asphyxia within four minutes are selected.
The substance to be studied is administered to groups of guinea-pigs thirty minutes before a further period in the chamber in order to check the resistance to histamine. A guinea-pig is considered to be protected if it resists the histamine aerosol for ten minutes without showing signs of asphyxia.
A 50% effective dose is calculated from the results obtained.

Series [5] has as its system lethal dose of histamine (histaminic shock). Briefly: Antihistaminic activity (protection from a lethal dose of histamine, histaminic shock). The class given is in vivo. Particulars: Cavia porcellus, po; guinea-pig, p.o. by position of the head; histamine 1 mg/kg i.v. As to the method: K--Antihistaminic activity
This test assesses the dose which protects fifty per cent of guinea-pigs from a lethal dose of histamine.
The product is administered thirty minutes before the intravenous injection of histamine hydrochloride (1 mg/kg).
The 50% effective dose is calculated from the results obtained.

A further series relates to rats. The series is described as follows: Determination of the minimal lethal dose (MLD) in rats. The class given is in vivo, rat. Particulars: male rats, doses 75 and 150 mg/kg. The protocol:
B. Determination of the minimal lethal dose (MLD) in rats
The derivatives studied were administered intraperitoneally to two groups made up of 5 male rats.
The following doses were used: 75 and 150 mg/kg.

In the next series the test system is anaphylactic shock. Briefly: Test for assessing the dose which protects 50% of guinea-pigs from anaphylactic shock. In kind it is in vivo. The note with it: Cavia porcellus, po; guinea-pig, p.o., 45 min before horse serum i.v.; read-out: ED50 protecting 50% of guinea-pigs from anaphylactic shock. As to the method:
L--Test for assessing the dose which protects 50% of guinea-pigs from anaphylactic shock
This test was carried out according to the following protocol:
Intraperitoneal administration to guinea-pigs of 2 ml of 20% horse serum in physiological solution for three days: D1, D3 and D5.
Trigger action: on D15, oral administration of the test product 45 minutes before the intravenous injection of 0.5 ml of pure horse serum.

A further series deals with motor activity of mice. The series is described as follows: Study of the spontaneous motility (motor activity, photoelectric actimeter). The class given is in vivo, mouse. The note with it: i.p., comparative test, the number is the dose of the effect. The protocol:
A--Study of the spontaneous motility
The motor activity of mice was determined with the aid of a Boissier and Simon photoelectric actimeter.
The mice are placed in groups of five in a box closed with a lid, through which two perpendicular light rays pass; the mice cut off these rays when they move.
These movements are measured by a counter, which is read after thirty minutes and one hour.

Series [6] relates to exploration behavior of mice. Briefly: Exploration behavior (automated hole-board). The class given is in vivo. Particulars: Mus musculus, ip, comparative test. The source says:
Thirty minutes after the intraperitoneal administration of the derivatives according to the invention, each mouse is placed on an automated hole-board for five minutes and the number of holes explored is noted every minute.
(§1) A 50% effective dose can be calculated from the results obtained.

For series [7], the system named is muscle-relaxing action in mice. Briefly: Muscle-relaxing action (traction test). The note with it: Mus musculus, ip, comparative test. In kind it is in vivo.
From the text: D--Muscle-relaxing action (traction test)
This test assesses the presence or absence of redressments in a mouse brought up to a horizontal wire with its front paws.
The number of mice which are unable to grip the wire with one of their back paws within five seconds is noted.
as §1

In series [8] the test system is sleep induced by pentobarbital. The series is described as follows: Interaction with pentobarbital. The class given is in vivo. The note with it: Mus musculus, ip, read-out: Interaction with pentobarbital ED50.
From the text: E--Interaction with pentobarbital
as §1

Where [9] appears, read: read-out: Peripheral analgesic activity (mouse) (ED50).
The mark [10] stands for this setting: ip, i.p., first value under bronchospasm, read-out: Bronchospasm (guinea-pig) (ED50), i.p.
The mark [11] stands for this setting: po, second value under bronchospasm, p.o. by position, read-out: Bronchospasm (guinea-pig) (ED50), second value.

With `CCOC(=O)C=C1CCN(CCOC(c2ccccc2)c2ccccc2)CC1` [Example 2, ethyl 1-(benzhydryloxyethyl)piperidin-4-ylideneacetate], in [1] (ip, read-out: LD50 (i.p.)), the LD50 (in general, the dose at which mortality reaches 50%) amounted to 300 mg/kg. For the same compound, the ED50 – broadly, the dose that gives a 50% effect, or the effect in half of the subjects – in series [2] (setting [9]) was 1.9 mg/kg; in [4] (setting [10]) it was 0.65 mg/kg; in [4] (setting [11]), 0.21 mg/kg; in series [5], 0.25 mg/kg. For the same compound, in [3], the “"In vitro" test (isolated ileum) (ED50)” value was above 10 µg.
On to `CCOC(=O)CC1CCN(CCOC(c2ccccc2)c2ccccc2)CC1` [Example 3, maleate of ethyl 1-(benzhydryloxyethyl)piperidino-4-acetate], for which the LD50 worked out at 160 mg/kg in series [1] (ip, read-out: LD50 (i.p.)) and 585 mg/kg in [1] (po, read-out: LD50 (p.o.)). The “MLD (i.p.)” value in the series with rats is recorded as 75 mg/kg. Further, the ED50 turned out to be 1.9 mg/kg in series [2] (setting [9]); 0.097 mg/kg in [4] (setting [10]); 0.223 mg/kg in series [4] (setting [11]); 0.061 mg/kg in series [5]; 0.829 mg/kg in the series with anaphylactic shock. The “"In vitro" test (isolated ileum) (ED50)” value in [3] came out at 8.0 µg.
For `CCOC(=O)C1CCN(CCOC(c2ccccc2)c2ccccc2)CC1` [Example 4, fumarate of 4-carbethoxy-1-benzhydryloxyethylpiperidine], the LD50 in [1] (ip, read-out: LD50 (i.p.)) was 456 mg/kg. In series [3], the “"In vitro" test (isolated ileum) (ED50)” value turned out to be 5 µg. The figures for the ED50 in series [4] (setting [10]), in [4] (setting [11]) and in series [5] were 0.46 mg/kg, 0.49 mg/kg and 0.334 mg/kg, respectively.
On to `CC(C)(C)c1ccc(C(O)CCCN2CCC(C(O)(c3ccccc3)c3ccccc3)CC2)cc1` (stereo not shown) [Terfenadine], for which, in the series with motor activity of mice, the “Motor activity, significant decrease at” value stood at 25 mg/kg. The ED50 in [6] stood at 37 mg/kg; in series [7] it was 31 mg/kg; in [8], 25 mg/kg; in [2] (mice, i.p., comparative test, read-out: Peripheral analgesic activity ED50), 3.1 mg/kg.
